The data set has as its system mouse and human plasma stability, LC/MS/MS, 180 min. Kind of data set: plasma degradation of screening hits, two species – biochemical, mouse and human plasma, ADME assay for GPR30 and estrogen receptor ligands, late-stage follow-up (AID 623907). As to conditions: at 1 µM, stronger effect = higher value.

For the molecule `COc1cc([N+](=O)[O-])cc2c1NC(C1CC=CCC1)C1CC=CC21` (configuration not stated), the percent remaining was 94.5%. The molecule further had a percent remaining (measured here: human plasma stability, 180 min) of 100%.

Source of the values: PubChem BioAssay AID623907 (NMMLSC, 2012).
